Here are results for eight compounds from patent publication US9663479B2, “γ-aminobutyric acid (GABA) analogues for the treatment of pain and other disorders” (Novassay S.A., priority 2013, dated 2017).

By IC50 is commonly meant the concentration at which inhibition is half-maximal.

Where only a bound is given, the exact number is not on record here.

For one assay, the target named is Human Cav1.2/β3/α2δ-1 Calcium Channel Membranes (α2δ-1 subunit) (Homo sapiens (Human), UniProt P54289). Description: [3H]gabapentin scintillation proximity binding assay on calcium channel α2δ-1 subunit membranes.
Sequence of Human Cav1.2/β3/α2δ-1 Calcium Channel Membranes (α2δ-1 subunit) (P54289 25-956): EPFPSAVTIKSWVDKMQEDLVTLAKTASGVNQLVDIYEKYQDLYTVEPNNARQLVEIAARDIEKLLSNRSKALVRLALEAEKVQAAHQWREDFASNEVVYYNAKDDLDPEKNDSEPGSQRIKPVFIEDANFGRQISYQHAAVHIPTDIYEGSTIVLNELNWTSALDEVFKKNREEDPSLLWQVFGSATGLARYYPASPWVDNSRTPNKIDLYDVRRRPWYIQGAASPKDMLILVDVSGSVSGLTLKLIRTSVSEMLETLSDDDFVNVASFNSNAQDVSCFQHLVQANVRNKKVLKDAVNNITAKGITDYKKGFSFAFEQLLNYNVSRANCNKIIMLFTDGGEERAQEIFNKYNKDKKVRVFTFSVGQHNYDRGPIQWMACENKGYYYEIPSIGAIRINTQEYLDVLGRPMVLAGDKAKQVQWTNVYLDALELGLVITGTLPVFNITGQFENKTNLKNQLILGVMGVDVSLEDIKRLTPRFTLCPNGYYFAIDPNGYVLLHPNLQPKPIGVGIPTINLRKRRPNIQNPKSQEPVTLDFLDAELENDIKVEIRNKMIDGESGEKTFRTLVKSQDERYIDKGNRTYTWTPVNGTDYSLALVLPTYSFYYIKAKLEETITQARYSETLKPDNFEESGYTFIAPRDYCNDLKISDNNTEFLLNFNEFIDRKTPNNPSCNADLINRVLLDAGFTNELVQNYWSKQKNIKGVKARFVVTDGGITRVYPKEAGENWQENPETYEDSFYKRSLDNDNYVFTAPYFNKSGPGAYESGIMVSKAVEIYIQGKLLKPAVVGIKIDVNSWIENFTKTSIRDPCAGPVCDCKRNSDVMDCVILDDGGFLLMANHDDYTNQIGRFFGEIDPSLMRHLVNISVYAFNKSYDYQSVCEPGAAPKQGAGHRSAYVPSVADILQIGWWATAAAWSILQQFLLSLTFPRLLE
Sequence of Human Cav1.2/β3/α2δ-1 Calcium Channel Membranes (α2δ-1 subunit) (P54289 957-1103): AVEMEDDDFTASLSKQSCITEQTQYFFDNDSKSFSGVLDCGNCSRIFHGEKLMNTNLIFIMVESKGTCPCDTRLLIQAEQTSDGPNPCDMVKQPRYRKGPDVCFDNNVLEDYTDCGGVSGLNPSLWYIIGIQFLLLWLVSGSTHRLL
Sequence of Human Cav1.2/β3/α2δ-1 Calcium Channel Membranes (α2δ-1 subunit) (Q13936 whole entry partner): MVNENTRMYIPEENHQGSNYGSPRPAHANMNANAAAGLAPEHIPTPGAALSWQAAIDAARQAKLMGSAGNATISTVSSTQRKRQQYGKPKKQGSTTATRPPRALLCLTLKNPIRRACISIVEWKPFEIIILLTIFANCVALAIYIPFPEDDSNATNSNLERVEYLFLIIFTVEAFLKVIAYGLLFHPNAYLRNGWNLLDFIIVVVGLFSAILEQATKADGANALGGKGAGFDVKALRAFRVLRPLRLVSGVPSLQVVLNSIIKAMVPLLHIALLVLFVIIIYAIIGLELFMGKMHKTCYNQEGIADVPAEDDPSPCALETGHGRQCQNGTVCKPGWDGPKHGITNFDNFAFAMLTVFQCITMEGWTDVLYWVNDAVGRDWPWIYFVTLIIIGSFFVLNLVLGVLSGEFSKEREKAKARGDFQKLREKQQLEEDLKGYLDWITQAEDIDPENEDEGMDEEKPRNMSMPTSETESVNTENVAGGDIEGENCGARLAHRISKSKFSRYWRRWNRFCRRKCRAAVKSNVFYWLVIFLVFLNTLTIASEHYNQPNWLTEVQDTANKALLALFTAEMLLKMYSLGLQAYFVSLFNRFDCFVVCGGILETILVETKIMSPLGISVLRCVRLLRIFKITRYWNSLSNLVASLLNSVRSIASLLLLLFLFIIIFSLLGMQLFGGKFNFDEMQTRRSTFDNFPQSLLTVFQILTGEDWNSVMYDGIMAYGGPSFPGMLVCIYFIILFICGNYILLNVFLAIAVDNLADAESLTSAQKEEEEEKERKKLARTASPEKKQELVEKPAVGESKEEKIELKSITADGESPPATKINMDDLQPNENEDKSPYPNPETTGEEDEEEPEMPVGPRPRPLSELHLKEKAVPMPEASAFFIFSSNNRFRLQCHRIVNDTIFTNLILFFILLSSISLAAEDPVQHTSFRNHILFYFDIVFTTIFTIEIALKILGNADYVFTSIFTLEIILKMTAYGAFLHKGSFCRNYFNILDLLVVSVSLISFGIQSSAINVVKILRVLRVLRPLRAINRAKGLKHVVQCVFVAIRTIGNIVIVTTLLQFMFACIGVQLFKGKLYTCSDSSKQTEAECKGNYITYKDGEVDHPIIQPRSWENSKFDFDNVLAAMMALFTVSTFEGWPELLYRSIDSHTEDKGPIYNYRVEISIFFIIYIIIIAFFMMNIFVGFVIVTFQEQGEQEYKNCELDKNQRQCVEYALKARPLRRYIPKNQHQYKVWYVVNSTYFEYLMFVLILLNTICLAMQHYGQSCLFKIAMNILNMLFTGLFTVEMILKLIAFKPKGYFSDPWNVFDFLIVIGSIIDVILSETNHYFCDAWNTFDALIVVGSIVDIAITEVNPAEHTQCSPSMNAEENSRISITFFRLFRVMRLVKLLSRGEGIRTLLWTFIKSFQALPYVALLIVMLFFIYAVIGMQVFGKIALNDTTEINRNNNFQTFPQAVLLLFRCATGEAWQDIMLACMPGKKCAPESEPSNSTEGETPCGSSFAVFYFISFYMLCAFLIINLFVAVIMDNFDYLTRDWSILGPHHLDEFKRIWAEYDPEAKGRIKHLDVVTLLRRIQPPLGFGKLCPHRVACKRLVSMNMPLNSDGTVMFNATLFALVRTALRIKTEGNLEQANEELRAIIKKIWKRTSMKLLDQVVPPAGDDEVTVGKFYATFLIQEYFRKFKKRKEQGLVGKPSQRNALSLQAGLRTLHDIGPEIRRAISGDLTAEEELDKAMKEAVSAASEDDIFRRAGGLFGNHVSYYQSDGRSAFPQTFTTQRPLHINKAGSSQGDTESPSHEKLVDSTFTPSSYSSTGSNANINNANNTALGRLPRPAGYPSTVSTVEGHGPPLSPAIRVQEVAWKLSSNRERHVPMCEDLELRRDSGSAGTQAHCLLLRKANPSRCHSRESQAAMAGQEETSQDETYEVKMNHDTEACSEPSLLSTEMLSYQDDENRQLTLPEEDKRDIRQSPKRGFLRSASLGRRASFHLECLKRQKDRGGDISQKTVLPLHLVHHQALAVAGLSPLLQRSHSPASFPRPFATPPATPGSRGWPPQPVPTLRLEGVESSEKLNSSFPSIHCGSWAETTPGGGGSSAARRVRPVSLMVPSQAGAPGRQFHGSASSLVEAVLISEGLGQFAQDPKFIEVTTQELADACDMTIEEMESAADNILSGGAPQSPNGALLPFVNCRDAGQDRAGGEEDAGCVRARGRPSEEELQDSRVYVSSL
Sequence of Human Cav1.2/β3/α2δ-1 Calcium Channel Membranes (α2δ-1 subunit) (P54284 whole entry partner): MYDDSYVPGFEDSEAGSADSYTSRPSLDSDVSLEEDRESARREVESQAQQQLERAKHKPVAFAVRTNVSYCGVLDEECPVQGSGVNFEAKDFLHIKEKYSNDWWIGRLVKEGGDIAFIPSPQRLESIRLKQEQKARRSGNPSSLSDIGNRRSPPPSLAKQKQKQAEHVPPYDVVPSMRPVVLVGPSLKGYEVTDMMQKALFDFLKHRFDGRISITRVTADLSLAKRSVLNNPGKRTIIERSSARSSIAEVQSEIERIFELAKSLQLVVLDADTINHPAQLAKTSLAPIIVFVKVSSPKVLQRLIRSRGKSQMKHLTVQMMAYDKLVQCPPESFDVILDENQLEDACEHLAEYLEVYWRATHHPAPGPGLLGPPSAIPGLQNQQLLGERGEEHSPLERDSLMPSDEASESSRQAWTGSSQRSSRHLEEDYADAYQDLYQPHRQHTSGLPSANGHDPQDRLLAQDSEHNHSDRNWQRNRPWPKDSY
Conditions: not given
As to the method:
This test was carried out in the following way.
Calcium Channel α2δ-1 Subunit Binding Assay
Human Cav1.2/β3/α2δ-1 Calcium Channel Membranes (Chantest) were thawed on ice, aliquotted and stored at −80° C. for subsequent use. Membranes were diluted to 200 μg/ml (3 μg/well final assay concentration (FAC)) in assay buffer (10 mM HEPES (Sigma), (pH7.4)). The [^3H]GBP (Perkin Elmer) stock solution was stored at −20° C. [^3H]GBP was diluted to 40 nM (10 nM FAC) in assay buffer. SPA beads (Perkin Elmer) were re-suspended at 100 mg/ml in 10 mM HEPES (pH 7.4). Beads were diluted to 40 mg/ml (0.6 mg/well FAC) in assay buffer. Nonspecific binding (NSB) was generated using an excess of pregabalin (Tocris). Pregabalin was solubilized in Milli-Q H2O at 10 mM. 10 mM pregabalin was diluted to 400 μM (100 μM FAC) in assay buffer.
Compounds were diluted to […] then half log diluted. These were then diluted 1:100 in assay buffer to a 4× assay concentration (1 μM FAC top dilution).
SPA beads 15 μl; membranes 15 μl; pregabalin or assay buffer/test compound 15 μl and [^3H]GBP 15 μl were added to a white 96 well isoplate, (Perkin Elmer). The assay plate was sealed and mixed for 10 s on a plate shaker then placed into a plate rack and slotted into the reader stacker.
The NSB values obtained by adding 100 μM pregabalin were subtracted from values obtained for compounds to generate a specific binding value. Specific binding in counts per minute (cpm) were plotted against compound concentration (M) and fitted using a 4 parameter logistic equation.
Turning to `CCC1=C[C@@H]2[C@H](C1)C[C@]2(CN)Cc1nc(=O)o[nH]1` (racemic) [Formula 3 (Racemic), Racemic 3-(((1R,5S,6S)-6-(aminomethyl)-3-ethylbicyclo[3.2.0]hept-3-en-6-yl)methyl)-1,2,4-oxadiazol-5(4H)-one], the IC50 stood at 19 nM. Take `CC(C)CC(CN)CC(=O)O` (stereo not drawn) [Pregabalin, reference compound]: the IC50 was 23 nM. Turning to `CCC1=CC2C(C1)C[C@]2(CN)Cc1nn[nH]n1` (single isomer, unassigned) [Formula 2 peak 2 (chiral)], the IC50 stood at 2.1 nM.

For the compound `CCC1=CC2C(C1)C[C@@]2(CN)Cc1nn[nH]n1` (single isomer, unassigned) [Formula 2 peak 1 (Chiral)], the IC50 turned out to be 165 nM.

Take `CCC1=C[C@@H]2[C@H](C1)C[C@]2(CN)Cc1nn[nH]n1` (racemic) [Formula 2 (Racemic), Racemic ((1R,5S,6S)-6-((1H-tetrazol-5-yl)methyl)-3-ethylbicyclo[3.2.0]hept-3-en-6-yl)methanamine]: the IC50 stood at 4.2 nM.

Take `CCNC[C@]1(Cc2nnn[nH]2)C[C@H]2CC(CC)=C[C@H]21` (racemic) [Formula 1 (Racemic), Racemic N-(((1R,5S,6S)-6-((1H-tetrazol-5-yl)methyl)-3-ethylbicyclo[3.2.0]hept-3-en-6-yl)methyl)ethanamine]: the half-inhibitory concentration (IC50) was at least 500 nM.

The test system of a further assay is human recombinant CACNA2D1 (Voltage-Gated Calcium Channel subunit α2δ-1 fragment). Description: Biacore surface plasmon resonance kinetic binding analysis on immobilised CACNA2D1. Particulars: SPR, CM5 chip, BSA reference subtracted. The source says: Method for determining kinetic binding parameters (association and dissociation rates) and affinities (KD) of GABA analogues to α2δ-1subunits.
It is well known in the art that binding affinity can be expressed as KD or equilibrium dissociation constant, whereby increasing binding affinity correlates with decreasing KD, which can be calculated from kinetic binding constants. Kinetic binding analysis of GABA analogues to α2δ-1subunits can be determined by surface plasmon resonance technology applied in Biacore™ SPR instruments (Biacore, GE Healthcare, Uppsala). Kinetic association rates (ka; k-on) and dissociation rates (kd; k-off) are obtained. Equilibrium dissociation constant (KD; affinity) values are calculated as k-off/k-on.
This example discloses that the GABA analogues ((1R,5S,6S)-6-((1H-tetrazol-5-yl)methyl)-3-ethylbicyclo[3.2.0]hept-3-en-6-yl)methanamine (“Test Compound”: prepared as described in Example 2) and (1R,5S,6S)-6-(aminomethyl)-3-ethylbicyclo[3.2.0]hept-3-en-6-yl]acetic acid (“Reference Compound”: prepared as described in WO 2010/079668 and US 2012/0071685A1) are capable of binding to a recombinant fragment of human Voltage-Gated Calcium Channel subunit (α2δ-1, CACNA2D1). […]
(In general: SPR reads the build-up and loss of mass on a sensor chip optically.)
Regarding `CCC1=C[C@@H]2[C@H](C1)C[C@]2(CN)Cc1nnn[nH]1` [Test Compound, ((1R,5S,6S)-6-((1H-tetrazol-5-yl)methyl)-3-ethylbicyclo[3.2.0]hept-3-en-6-yl)methanamine], the “Specific binding to human CACNA2D1 recombinant protein” value is listed as “able to specifically bind”. With `CCC1=C[C@@H]2[C@H](C1)C[C@]2(CN)CC(=O)O` [Reference Compound, reference compound], the “Specific binding to human CACNA2D1 recombinant protein” value is “able to specifically bind”.

The target of the next assay is α2δ-1 sub-unit (Homo sapiens (Human), UniProt P54289).
Sequence of α2δ-1 sub-unit (P54289 whole entry, looked up): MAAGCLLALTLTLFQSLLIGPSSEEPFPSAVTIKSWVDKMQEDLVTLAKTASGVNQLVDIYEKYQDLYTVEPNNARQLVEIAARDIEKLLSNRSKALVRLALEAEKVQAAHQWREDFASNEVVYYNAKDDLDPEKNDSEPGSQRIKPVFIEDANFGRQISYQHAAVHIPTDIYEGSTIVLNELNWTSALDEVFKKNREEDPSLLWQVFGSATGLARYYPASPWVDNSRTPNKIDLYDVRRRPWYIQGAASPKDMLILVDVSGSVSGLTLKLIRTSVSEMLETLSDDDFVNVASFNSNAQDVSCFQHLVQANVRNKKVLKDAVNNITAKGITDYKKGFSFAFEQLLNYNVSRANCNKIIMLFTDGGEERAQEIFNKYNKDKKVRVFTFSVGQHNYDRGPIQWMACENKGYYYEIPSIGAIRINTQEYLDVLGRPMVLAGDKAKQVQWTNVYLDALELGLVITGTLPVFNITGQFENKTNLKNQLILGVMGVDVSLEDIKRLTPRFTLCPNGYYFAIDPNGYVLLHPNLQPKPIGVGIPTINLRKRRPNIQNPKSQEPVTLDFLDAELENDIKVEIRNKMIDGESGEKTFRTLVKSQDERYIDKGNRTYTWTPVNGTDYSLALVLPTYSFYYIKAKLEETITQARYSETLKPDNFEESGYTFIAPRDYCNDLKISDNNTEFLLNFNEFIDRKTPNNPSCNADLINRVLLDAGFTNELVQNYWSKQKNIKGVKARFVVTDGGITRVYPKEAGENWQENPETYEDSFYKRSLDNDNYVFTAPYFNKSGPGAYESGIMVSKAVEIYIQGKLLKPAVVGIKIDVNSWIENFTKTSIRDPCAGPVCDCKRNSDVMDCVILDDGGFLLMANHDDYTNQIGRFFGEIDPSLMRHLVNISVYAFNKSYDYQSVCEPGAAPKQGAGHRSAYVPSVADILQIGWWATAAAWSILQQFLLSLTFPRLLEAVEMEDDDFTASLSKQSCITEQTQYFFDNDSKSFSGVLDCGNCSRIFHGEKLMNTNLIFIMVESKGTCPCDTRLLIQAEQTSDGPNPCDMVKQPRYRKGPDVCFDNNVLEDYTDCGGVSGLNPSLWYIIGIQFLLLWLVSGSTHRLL
Test: not given
Particulars: read-out: Literature IC50 nM; binding to α2δ-1 sub-unit, literature value; cited from earlier work.
Turning to `CC(C)CC(CN)CC(=O)O` (stereo not drawn) [Pregabalin, reference compound], the 50% inhibitory concentration (IC50) is 80 nM.
